Measured values as given in patent US12428394B2, “2,4-disubstituted pyrimidine derivative, preparation method therefor and use thereof” (CHENGDU ZENITAR BIOMEDICAL TECHNOLOGY CO., LTD., priority 2019, dated 2025).

Tests used:
[1] = system: MV4-11 cells (FLT3-ITD+/+); assay: Inhibition of cell proliferation by MTT experiment, MV4-11; assay type: cell-based, human; conditions: Homo sapiens, MV4-11, 72 h, read-out: IC50 value on cell proliferation inhibition, MV4-11 FLT3-ITD+/+
How it was run: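 MTT assay in MV4-11, MOLM-13 (FLT3-ITD) and SET-2 (JAK2 V617F) cells at 10,000–15,000 cells/well in IMDM with 10% FBS. Cells are exposed to compound for 72 h at 37 °C, then to MTT for 1–3 h. IC50 is fitted from inhibition rates across concentrations.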

JAK3 = target: T1, JAK3 (Homo sapiens, UniProt P52333); assay: In vitro kinase activity experiment, JAK3; assay type: biochemical
T1 construct: purchased Eurofins
T1 sequence (P52333 1-1124): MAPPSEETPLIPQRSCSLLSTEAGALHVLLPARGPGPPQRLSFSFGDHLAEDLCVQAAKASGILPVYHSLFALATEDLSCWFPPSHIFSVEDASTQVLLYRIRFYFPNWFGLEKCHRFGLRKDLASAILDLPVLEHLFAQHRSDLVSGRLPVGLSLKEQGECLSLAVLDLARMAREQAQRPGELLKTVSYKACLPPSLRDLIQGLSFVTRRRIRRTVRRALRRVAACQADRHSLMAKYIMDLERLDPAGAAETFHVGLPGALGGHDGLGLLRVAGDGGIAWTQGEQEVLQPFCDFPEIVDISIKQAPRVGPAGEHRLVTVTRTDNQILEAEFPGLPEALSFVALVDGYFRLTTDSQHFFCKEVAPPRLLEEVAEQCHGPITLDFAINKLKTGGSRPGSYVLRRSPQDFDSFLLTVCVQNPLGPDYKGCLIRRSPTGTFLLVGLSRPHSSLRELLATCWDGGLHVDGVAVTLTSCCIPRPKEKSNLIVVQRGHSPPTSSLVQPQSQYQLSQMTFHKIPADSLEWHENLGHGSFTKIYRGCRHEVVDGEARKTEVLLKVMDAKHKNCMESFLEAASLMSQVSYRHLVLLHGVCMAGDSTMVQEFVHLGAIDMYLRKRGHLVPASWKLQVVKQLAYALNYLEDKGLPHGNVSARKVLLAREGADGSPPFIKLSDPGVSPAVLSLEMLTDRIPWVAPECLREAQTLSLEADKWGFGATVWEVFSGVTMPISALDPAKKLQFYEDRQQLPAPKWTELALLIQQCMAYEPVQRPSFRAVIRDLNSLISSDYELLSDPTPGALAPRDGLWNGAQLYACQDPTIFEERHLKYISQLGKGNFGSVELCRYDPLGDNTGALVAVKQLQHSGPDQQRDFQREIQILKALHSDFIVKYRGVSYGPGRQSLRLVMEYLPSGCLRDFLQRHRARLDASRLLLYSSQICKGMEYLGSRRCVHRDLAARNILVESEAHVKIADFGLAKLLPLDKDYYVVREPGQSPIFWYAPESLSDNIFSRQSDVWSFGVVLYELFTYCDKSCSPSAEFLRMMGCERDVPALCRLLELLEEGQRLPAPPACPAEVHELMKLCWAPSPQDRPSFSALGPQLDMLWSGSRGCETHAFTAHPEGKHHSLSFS
Description: Buffer solution ([…], pH 7.0, 0.2 mm EDTA, 10 mM mncl2), kinase to be tested, substrate of kinase to be tested, 10 mM magnesium acetate and γ33P-ATP solution, and compounds with different concentrations were added to a reaction tube in turn, then MgATP was added to initiate the enzyme reaction process, and incubated at room temperature for 40 min. Then, the reaction was terminated with 5 μl of […], and 10 μl of the reaction solution was titrated onto the Filtermat A membrane, washed with 75 mM phosphate solution for three times, each time for 5 min., and then washed with methanol once. Finally, the Filtermat A membrane was dried and the scintillation count was carried out.

[2] = system: JAK2/FLT3 signaling pathway related proteins; assay: Immunoblot experiment on JAK2/FLT3 signaling pathway related proteins in MV4-11 and SET-2 cells; assay type: cell-based; conditions: different concentrations
Description: The cells were subjected to SDS-PAGE gel electrophoresis with 8%-16% gradient gels, and constant flow membrane was carried out. The cells were blocked with 5% skim milk, and the primary antibody FLT3 (CST, 3462S), […] (CST, 3464S), STAT5 (CST, 9363S), […] (Abcam, ab32364), JAK2 (Proteintech, 02802), p-JAK2 (Abcam, ab32101), JAK1 (Santa Cruz Biotechnology, sc-136225), […] (Santa Cruz Biotechnology, sc-101716), GAPDH (Abways, AB0037), Rb (Abways, CY5661), […] (Abways, CY5260) was incubated. The next day, the cells were washed with PBS/T for three times, horseradish enzyme-labeled goat anti-mouse second antibody (Abways, AB0102) and horseradish enzyme-labeled goat anti-rabbit second antibody (Abways, AB0101) were incubated at room temperature, then the cells were washed with PBS/T for three times, and developed by the addition of the ECL chemiluminescent substrate.

JAK2V617F = assay: JAK2V617F-induced myelofibrosis mouse model; assay type: in vivo, BALB/c mice; conditions: 30 mg/Kg, oral twice a day, after 8 weeks of treatment
Excerpt: JAK2 mutant JAK2V617F gene vector MSCV-JAK2V617F-GFP (Chengdu Wandao Biotechnology Development Co., Ltd.) and BALB/c mice (Jiangsu Jicui Yaokang Biotechnology Co., Ltd.) were provided as donors. The mouse bone marrow cells were sampled and infected with JAK2V617F virus, and the infected cells were reinfused into BALB/c recipient mice irradiated by X-rays through tail vein. Then, the JAK2V617F-positive myelofibrosis mouse model was induced. […] The administration route was oral administration twice a day, and the mice in the blank control group and the model group took the same volume of normal saline orally. […] Therefore, modifications or improvements made without departing from the spirit of the present invention are within the scope of protection of the present invention.

For `Cc1cnc(Nc2ccc(N3CCC(N(C)CCO)CC3)c(F)c2)nc1-c1cnn(C(C)C)c1` [CLJ-44, 5-methyl-N-(3-fluoro-4-(4-N-hydroxyethyl-4-N-methylaminopiperidine-1-yl)phenyl)-4-(1-isopropyl-1H-pyrazole-4-yl) pyrimidine-2-amine], the IC50 [1] was 1 to 10 nM, the IC50 (JAK3) was 46 nM and the “autophosphorylation of JAK2/FLT3 (immunoblot)” value [2] was “significantly inhibited the autophosphorylation of JAK2/FLT3 in a dose-dependent relationship”. The “effect on JAK subtype JAK1 (immunoblot)” value [2] was “weak effect” and the “inhibition of growth rate of spleen” value (JAK2V617F) was 96.73%.
